Data on 2 substances can be found in US20180111991A1, “MODULATORS OF ACTIVIN AND METHODS FOR MODULATING IMMUNE RESPONSES AND T FOLLICULAR HELPER CELLS” (LA JOLLA INSTITUTE FOR ALLERGY AND IMMUNOLOGY, priority 2014, published 2018).

The subject of test [1] is human naïve CD4 T cells. Put plainly: Screening of secretomics recombinant proteins for Tfh marker induction. Format: cell-based. The note with it: secretomics protein screen, anti-CD3/CD28 beads, 5 days, automated FACS. The method, then:
FIG. 1A-D: Inhibin beta A (INHBA) emerged from the screen as potent regulator of human Tfh differentiation. (A) Schematic of primary screen. Purified human naïve CD4 T cells from a leukapheresis donor were stimulated by anti-CD3/CD28 beads on 384 well plates on day 0. The GNF secretomics recombinant proteins were added at the beginning of the stimulation. Each secretomics protein was tested in duplicate. After 5 days of in vitro culture, cells were evaluated by automated FACS analysis for the expression of Tfh signature markers, including CXCR5 and PD-1. (B) Primary screen results. Relative enrichment of PD-1^+CXCR5^+ cell induction is reported as Z score for each recombinant protein. INHBA gene product is shown in red. (C) CXCR5 and PD-1 expression from repeat experiment in which INHBA gene product was tested again for its capacity to induce Tfh-like differentiation. (D) Confocal microscopy of INHBA expression in human tonsils. Tonsil sections were stained with anti-INHBA (red) anti-BCL6 (blue) and anti-CD3 (green) Abs. An overlay from one donor representative of six is shown on the left panel. […]
Naïve CD4^+ T cells were isolated from leukapheresis-derived mononuclear cells via CliniMACS negative selection (Miltenyi Biotec). […] Induction of CXCR5 and PD-1 was assessed after 5 days of in vitro culture using automated FACS acquisition via HTS on LSR Fortessa (BD Biosciences). For each 384 well plate, mean and standard deviation of PD-1^+CXCR5^+ cell frequency induced by each individual recombinant proteins was determined and used to calculate the Z score. Z scores of replicate plates were analyzed independently.
To discover novel regulators of human Tfh cell differentiation, we performed an unbiased high throughput screen of a human extracellular proteome library consisting of over 2000 human proteins predicted or known to be cytokines, chemokines, morphogens, costimulatory receptors, or single pass transmembrane molecules^19. […] Following 5 days, expression of the Tfh signature markers CXCR5 and PD-1 were measured on the cells by flow cytometry, in an automated fashion. […]

Test [2] relates to human naïve CD4 T cells. Put plainly: FoxP3 induction by FACS in in vitro differentiated cells. It counts as cell-based. The note with it: for FoxP3 expression (FoxP3+ cells): with or without IL-12, day 5. The method, then:
For surface staining, primary-staining panels used for phenotypic analysis or for cell sorting known in the art were used. For the intranuclear staining: cells were treated with the FoxP3 Fixation/Permeabilization kit (eBioscience) and stained in Permeabilization buffer (eBioscience). For cytokine staining: day 3 or day 5 in vitro differentiated cells (specified in the main text or in figure legends) cells were stimulated for 5 hours at 37° C. with Phorbol 12-myristate 13-acetate (PMA, 25 ng/ml) and Ionomycin (1 μg/ml) in the presence of Brefeldin A (5 μg/ml). Cells were fixed with PBS 2% FBS, 1% PFA and permeabilized with PBS 2% FBS, 0.5% Saponin (from quillaja bark, Sigma-Aldrich). Samples were analyzed on a LSR Fortessa Cell Analyzer (BD, Bioscience). Flow cytometry data were analyzed with FlowJo (Tree Star). For cell sorting, cells were sorted using sorted using a FACS Aria (BD, Bioscience).
Unless differently specified, naïve CD4^+ T cells were enriched from PBMCs by magnetic bead negative selection with the Naïve CD4^+ T Cell Isolation Kit (Stem Cell Technologies). Purity (CD4^+CD45RA^+) was 90% or higher. […] The 14 kDa mature human beta A chain of human activin A shares 100% amino acid sequence identity with bovine, feline, mouse, porcine, and rat beta A. Phenotype was quantified after 3 or 5 days, as specified in the main text of Figure legends. […] For experiments quantifying supernatant CXCL13 concentration, cells were activated by plate-bound anti-human CD3 (5 μg/ml, BD) and ICOS-L (5 μg/ml, recombinant human B7-H2, R&D). CXCL13 concentrations were determined via human CXCL13 DuoSet ELISA (R&D) on supernatants harvested after 5 days of in vitro culture. […]
(A flow cytometer gives signals particle by particle.)

The subject of the next test is SMAD2/3. Put plainly: Analysis of phosphorylated SMAD2/3 in blood naïve CD4 T cells. It counts as cell-based, human. The text has this:
Fresh PBMCs and tonsil mononuclear cells were serum-starved over night in AIM-V medium. […] Following stimulation, the cells were fixed in BD Phosflow™ Fix Buffer I (BD Biosciences), then permeabilized using BD Phosflow™ Perm Buffer III (BD Biosciences) following manufacture's instruction.

Entries after “also recorded” stand apart in the source; their conditions may differ.

As for TGFβ, the “induction of CXCR5 and PD-1 expression (PD-1+CXCR5+ cells)” value in the test with human naïve CD4 T cells [1] was “regulator T cell differentiation”. In addition, the “FoxP3 expression (FoxP3+ cells)” value in the test on human naïve CD4 T cells [2] was “induce high FoxP3 expression; also recorded: preferentially induces FoxP3”.
For the substance “activin A: commercial recombinant cytokine, homodimer of the INHBA gene product (inhibin beta A)”, the “induction of CXCR5 and PD-1 expression (PD-1+CXCR5+ cells)” value in the test on human naïve CD4 T cells [1] is “potent regulator of the human Tfh gene program; also recorded: top hit in the screen”. Moreover, in the test on human naïve CD4 T cells [2] (activin A with recombinant TGFβ), the “FoxP3 upregulation (FoxP3+CXCR5+ cells)” value is reported as “synergize in inducing FoxP3 upregulation”. In addition, in the test on human naïve CD4 T cells [2], the “FoxP3 expression (FoxP3+ cells)” value was “but not activin A was found to induce high FoxP3 expression; also recorded: less potent than TGFβ in driving the generation of FoxP3^+ cells; also recorded: induced less FoxP3 expression”. Besides, in the test with SMAD2/3 (blood naïve CD4 T cells, activin A 400 ng/ml), the “phosphorylation of SMAD2/3” value was “Phosphorylation of SMAD2/3 in naïve human CD4 T cells in response to activin A was observed”. For the same substance, the “induction of SMAD-independent pathways” value with SMAD2/3 (downstream of activin A, time points analyzed) was “No relevant induction of SMAD-independent pathways”.
